From PubChem BioAssay AID1963866 (Molecular Pharmacology Branch, DTP, NCI, 2024)
Values joined by “and” are separate entries in the source; they are usually repeats but may differ in a detail not shown here. Identical values can stand only once.

System: PDC KRAS tumor spheroids with HUVEC/MSC, viability
Assay: Anticancer human tumor 349418-098-R-PDC patient-derived lung adenocarcinoma cell line growth inhibition [KRAS2]
Conditions: for viability, T/C: stronger effect = lower value
Procedure, shortened: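 Combination screen of spheroid viability in tumor-cell co-cultures with endothelial (HUVEC) and mesenchymal stem cell stroma. Each agent was tested in half-log dilutions, topping at clinical Cmax or at 10 microM without a known Cmax.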

[1] = curve of first compound, second compound 0.1 µM
[2] = curve of first compound, second compound 0.316 µM
[3] = curve of first compound, second compound 1 µM
[4] = curve of first compound, second compound 3.16 µM
[5] = curve of first compound, second compound 10 µM
[6] = second compound 0.1 µM, first compound 0.0316 µM
[7] = second compound 0.1 µM, first compound 0.1 µM
[8] = second compound 0.1 µM, first compound 0.316 µM
[9] = second compound 0.1 µM, first compound 1 µM
[10] = second compound 0.1 µM, first compound 3.16 µM
[11] = second compound 0.1 µM, first compound 10 µM
[12] = second compound 0.316 µM, first compound 0.0316 µM
[13] = second compound 0.316 µM, first compound 0.1 µM
[14] = second compound 0.316 µM, first compound 0.316 µM
[15] = second compound 0.316 µM, first compound 1 µM
[16] = second compound 0.316 µM, first compound 3.16 µM
[17] = second compound 0.316 µM, first compound 10 µM
[18] = second compound 1 µM, first compound 0.0316 µM
[19] = second compound 1 µM, first compound 0.1 µM
[20] = second compound 1 µM, first compound 0.316 µM
[21] = second compound 1 µM, first compound 1 µM
[22] = second compound 1 µM, first compound 3.16 µM
[23] = second compound 1 µM, first compound 10 µM
[24] = second compound 3.16 µM, first compound 0.0316 µM
[25] = second compound 3.16 µM, first compound 0.1 µM
[26] = second compound 3.16 µM, first compound 0.316 µM
[27] = second compound 3.16 µM, first compound 1 µM
[28] = second compound 3.16 µM, first compound 3.16 µM
[29] = second compound 3.16 µM, first compound 10 µM
[30] = second compound 10 µM, first compound 0.0316 µM
[31] = second compound 10 µM, first compound 0.1 µM
[32] = second compound 10 µM, first compound 0.316 µM
[33] = second compound 10 µM, first compound 1 µM
[34] = second compound 10 µM, first compound 3.16 µM
[35] = second compound 10 µM, first compound 10 µM
[36] = curve of first compound, second compound 0.0316 µM
[37] = second compound 0.0316 µM, first compound 0.01 µM
[38] = second compound 0.0316 µM, first compound 0.0316 µM
[39] = second compound 0.0316 µM, first compound 0.1 µM
[40] = second compound 0.1 µM, first compound 0.01 µM
[41] = second compound 0.316 µM, first compound 0.01 µM
[42] = second compound 1 µM, first compound 0.01 µM
[43] = second compound 3.16 µM, first compound 0.01 µM
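Further: spheroids exposed to compounds for seven days before readout.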

O=C(c1cc(Cc2n[nH]c(=O)c3ccccc23)ccc1F)N1CCN(C(=O)C2CC2)CC1 + CNCc1ccccc1-c1csc(C(C)Nc2nc(C)nc3cc(OC)c(OC)cc23)c1
IC50 [1]: 4090 nM | IC50 [2]: 2900 nM | IC50 [3]: 2530 nM | IC50 [4]: < 31.6 nM | IC50 [5]: < 31.6 nM | viability, T/C [6]: 101% | viability, T/C [7]: 99.5% | viability, T/C [8]: 83% | viability, T/C [9]: 71% | viability, T/C [10]: 58.1% | viability, T/C [11]: 31.4% | viability, T/C [12]: 107% | viability, T/C [13]: 101% | viability, T/C [14]: 78.5% | viability, T/C [15]: 69.7% | viability, T/C [16]: 48.4% | viability, T/C [17]: 29% | viability, T/C [18]: 99.5% | viability, T/C [19]: 77.8% | viability, T/C [20]: 75.3% | viability, T/C [21]: 69.6% | viability, T/C [22]: 45.3% | viability, T/C [23]: 27.8% | viability, T/C [24]: 0.19% | viability, T/C [25]: 0.21% | viability, T/C [26]: 0.12% | viability, T/C [27]: 0.11% | viability, T/C [28]: 0.1% | viability, T/C [29]: 0.11% | viability, T/C [30]: 0.08% | viability, T/C [31]: 0.08% | viability, T/C [32]: 0.08% | viability, T/C [33]: 0.07% | viability, T/C [34]: 0.07% | viability, T/C [35]: 0.17%

CC(C)n1nc(-c2ccc3oc(N)nc3c2)c2c(N)ncnc21
viability, T/C (compound 0.000316 µM): 87.2% [middle of 5 runs] | viability, T/C (compound 0.001 µM): 47.6% [middle of 5 runs] | viability, T/C (compound 0.00316 µM): 17.1% [middle of 5 runs] | viability, T/C (compound 0.01 µM): 10.7% [middle of 5 runs] | viability, T/C (compound 0.0316 µM): 9.1% [middle of 5 runs] | viability, T/C (compound 0.1 µM): 8.83% [middle of 5 runs] | IC50 (curve of compound): 0.92 nM [middle of 5 runs]

CC(C)n1nc(-c2ccc3oc(N)nc3c2)c2c(N)ncnc21 + C=CC(=O)N1CCN(c2nc(OCC3CCCN3C)nc3c2CCN(c2cccc4cccc(C)c24)C3)CC1CC#N
IC50 [36]: 1.04 nM | IC50 [1]: 0.76 nM | IC50 [2]: 0.891 nM | IC50 [3]: 0.673 nM | IC50 [4]: < 0.316 nM | viability, T/C (second compound 0.0316 µM, first compound 0.000316 µM): 91.5% | viability, T/C (second compound 0.0316 µM, first compound 0.001 µM): 51.2% | viability, T/C (second compound 0.0316 µM, first compound 0.00316 µM): 14.9% | viability, T/C [37]: 9.06% | viability, T/C [38]: 8.26% | viability, T/C [39]: 8.57% | viability, T/C (second compound 0.1 µM, first compound 0.000316 µM): 95.8% | viability, T/C (second compound 0.1 µM, first compound 0.001 µM): 35.6% | viability, T/C (second compound 0.1 µM, first compound 0.00316 µM): 13.9% | viability, T/C [40]: 8.16% | viability, T/C [6]: 7.73% | viability, T/C [7]: 7.41% | viability, T/C (second compound 0.316 µM, first compound 0.000316 µM): 92.3% | viability, T/C (second compound 0.316 µM, first compound 0.001 µM): 45.2% | viability, T/C (second compound 0.316 µM, first compound 0.00316 µM): 18% | viability, T/C [41]: 9.14% | viability, T/C [12]: 7.31% | viability, T/C [13]: 7.9% | viability, T/C (second compound 1 µM, first compound 0.000316 µM): 71.8% | viability, T/C (second compound 1 µM, first compound 0.001 µM): 38.3% | viability, T/C (second compound 1 µM, first compound 0.00316 µM): 17.3% | viability, T/C [42]: 7.45% | viability, T/C [18]: 6.31% | viability, T/C [19]: 6.74% | viability, T/C (second compound 3.16 µM, first compound 0.000316 µM): 1% | viability, T/C (second compound 3.16 µM, first compound 0.001 µM): 0.25% | viability, T/C (second compound 3.16 µM, first compound 0.00316 µM): 1.1% | viability, T/C [43]: 0.13% | viability, T/C [24]: 0.22% | viability, T/C [25]: 0.17%

COc1cc(Nc2ncc3c(n2)-c2ccc(Cl)cc2C(c2c(F)cccc2OC)=NC3)ccc1C(=O)O + C=CC(=O)N1CCN(c2nc(=O)n(-c3c(C)ccnc3C(C)C)c3nc(-c4c(O)cccc4F)c(F)cc23)C(C)C1
IC50 [1]: < 31.6 nM | IC50 [2]: < 31.6 nM | IC50 [3]: < 31.6 nM | IC50 [4]: < 31.6 nM | IC50 [5]: < 31.6 nM | viability, T/C [6]: 29% | viability, T/C [7]: 18.9% | viability, T/C [8]: 20.6% | viability, T/C [9]: 42.2% | viability, T/C [10]: 61.3% | viability, T/C [11]: 39.2% | viability, T/C [12]: 45.5% | viability, T/C [13]: 34.7% | viability, T/C [14]: 50.7% | viability, T/C [15]: 59.3% | viability, T/C [16]: 42.7% | viability, T/C [17]: 37.5% | viability, T/C [18]: 14.8% | viability, T/C [19]: 32.8% | viability, T/C [20]: 54.8% | viability, T/C [21]: 69.5% | viability, T/C [22]: 53.1% | viability, T/C [23]: 42.8% | viability, T/C [24]: 30.7% | viability, T/C [25]: 32% | viability, T/C [26]: 48.5% | viability, T/C [27]: 37.5% | viability, T/C [28]: 40.9% | viability, T/C [29]: 35.7% | viability, T/C [30]: 29.8% | viability, T/C [31]: 39.5% | viability, T/C [32]: 33.7% | viability, T/C [33]: 35.4% | viability, T/C [34]: 36.8% | viability, T/C [35]: 29.3%

CC1COCCN1c1cc(-c2ccnn2C)c2ccnc(-c3ccn[nH]3)c2n1 (configuration not stated)
viability, T/C (compound 0.1 µM): 10.9% [middle of 5 runs] | viability, T/C (compound 0.316 µM): 6.73% [middle of 5 runs] | viability, T/C (compound 1 µM): 5.15% [middle of 5 runs] | viability, T/C (compound 3.16 µM): 4.48% [middle of 5 runs]

COc1cc(Nc2ncc3c(n2)-c2ccc(Cl)cc2C(c2c(F)cccc2OC)=NC3)ccc1C(=O)O
viability, T/C (compound 0.1 µM): 27.8% [middle of 5 runs] | viability, T/C (compound 0.316 µM): 33.1% [middle of 5 runs] | viability, T/C (compound 1 µM): 35.6% [middle of 5 runs] | viability, T/C (compound 3.16 µM): 33.9% [middle of 5 runs] | viability, T/C (compound 10 µM): 24.8% [middle of 5 runs] | IC50 (curve of compound): < 31.6 nM and 43.2 nM

CC1COCCN1c1cc(-c2ccnn2C)c2ccnc(-c3ccn[nH]3)c2n1 (configuration not stated) + C=CC(=O)N1CCN(c2nc(OCC3CCCN3C)nc3c2CCN(c2cccc4cccc(C)c24)C3)CC1CC#N
IC50 [36]: 29.8 nM | IC50 [1]: 31.1 nM | IC50 [2]: 23.8 nM | IC50 [3]: < 10 nM | IC50 [4]: < 10 nM | viability, T/C [37]: 94.1% | viability, T/C [38]: 47.6% | viability, T/C [39]: 9.45% | viability, T/C (second compound 0.0316 µM, first compound 0.316 µM): 5.83% | viability, T/C (second compound 0.0316 µM, first compound 1 µM): 4.78% | viability, T/C (second compound 0.0316 µM, first compound 3.16 µM): 4.54% | viability, T/C [40]: 112% | viability, T/C [6]: 49.1% | viability, T/C [7]: 9.48% | viability, T/C [8]: 5.64% | viability, T/C [9]: 4.53% | viability, T/C [10]: 3.65% | viability, T/C [41]: 102% | viability, T/C [12]: 33% | viability, T/C [13]: 5.66% | viability, T/C [14]: 4.96% | viability, T/C [15]: 4.7% | viability, T/C [16]: 4.39% | viability, T/C [42]: 43.6% | viability, T/C [18]: 4.15% | viability, T/C [19]: 3.41% | viability, T/C [20]: 4.26% | viability, T/C [21]: 3.79% | viability, T/C [22]: 3.79% | viability, T/C [43]: 0.1% | viability, T/C [24]: 0.21% | viability, T/C [25]: 0.07% | viability, T/C [26]: 0.06% | viability, T/C [27]: 0.07% | viability, T/C [28]: 0.12%

CC1COCCN1c1cc(-c2ccnn2C)c2ccnc(-c3ccn[nH]3)c2n1 (configuration not stated) + COc1cc2nc(C)nc(NC(C)c3cc(N)cc(C(F)(F)F)c3)c2cc1OC1CCOC1
IC50 [1]: < 10 nM | IC50 [2]: 43.8 nM | IC50 [3]: 48.5 nM | IC50 [4]: 42.7 nM | IC50 [5]: < 10 nM | viability, T/C [40]: 5.36% | viability, T/C [6]: 8.3% | viability, T/C [7]: 5.7% | viability, T/C [8]: 5.49% | viability, T/C [9]: 6% | viability, T/C [10]: 5.72% | viability, T/C [41]: 170% | viability, T/C [12]: 65.5% | viability, T/C [13]: 10.9% | viability, T/C [14]: 6.49% | viability, T/C [15]: 5.47% | viability, T/C [16]: 7.16% | viability, T/C [42]: 167% | viability, T/C [18]: 71.2% | viability, T/C [19]: 13.9% | viability, T/C [20]: 11.7% | viability, T/C [21]: 7.84% | viability, T/C [22]: 7.72% | viability, T/C [43]: 146% | viability, T/C [24]: 63.1% | viability, T/C [25]: 12.8% | viability, T/C [26]: 7.88% | viability, T/C [27]: 6.55% | viability, T/C [28]: 9.36% | viability, T/C (second compound 10 µM, first compound 0.01 µM): 36.6% | viability, T/C [30]: 14.1% | viability, T/C [31]: 8.5% | viability, T/C [32]: 6.86% | viability, T/C [33]: 7.4% | viability, T/C [34]: 5.53%
